US9783511B2, “Carbamate benzoxazine propionic acids and acid derivatives for modulation of RORgamma activity and the treatment of disease” (Merck Sharp & Dohme Corp., priority 2013, dated 2017)

biological target: human RORgammaT-Ligand Binding Domain (LBD) (Homo sapiens (Human), UniProt P51449); assay: RORγ-Ligand Binding Domain TR-FRET Assay (co-activator peptide SRC1_2 recruitment); format: biochemical; conditions: HIS-tagged RORγ-LBD 3 nM, biotinylated SRC1 LXXLL peptide 100 nM, incubated overnight at 4° C., 665 nm/615 nm ratio
Description: Activation of RORgammaT activity can be measured using, e.g., a biochemical TR-FRET assay. In such an assay, interaction of cofactor-derived peptides with human RORgammaT-Ligand Binding Domain (LBD) can be measured.
To identify novel antagonists of RORgammaT, an assay was developed which employs the interaction of RORgammaT with its co-activator peptide SRC1_2. […] The RORγ-Ligand Binding Domain TR-FRET Assay was run according to the following protocol.
HIS-tagged RORγ-LBD protein was recombinantly expressed in Escherichia coli. The RORγ-LBD protein was purified by Ni^2+-affinity resin. Purified protein was then diluted in assay buffer (50 mM Tris pH 7.0, 50 mM KCl, 1 mM EDTA, 0.1 mM DTT, 100 μg/mL bovine serum albumin, delipidated) to obtain a RORγ-LBD final concentration of 3 nM.
Compounds to be tested were injected to the 384-well assay plate using Acoustic Droplet Ejection technology by Echo 550 liquid handler (Labcyte, CA).

human RORgammaT-Ligand Binding Domain (LBD), sequence (P51449 269-508): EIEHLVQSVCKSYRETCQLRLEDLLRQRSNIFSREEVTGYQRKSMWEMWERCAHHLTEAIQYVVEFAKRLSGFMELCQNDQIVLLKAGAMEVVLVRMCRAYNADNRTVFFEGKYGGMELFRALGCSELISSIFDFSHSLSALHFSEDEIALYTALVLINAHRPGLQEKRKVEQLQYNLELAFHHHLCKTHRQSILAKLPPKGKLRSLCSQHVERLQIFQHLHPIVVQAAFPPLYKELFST

| Structure (SMILES) | IC50 |
| --- | --- |
| Cc1nn(C(F)F)cc1S(=O)(=O)N1C[C@H](C[C@@H](C)C(=O)O)Oc2ccc(NC(=O)OC(C)(C)C(F)(F)F)cc21 (single isomer, unassigned) [Example 6BG, (R or S)-3-((S)-4-((1-(difluoromethyl)-3-methyl-1H-pyrazol-4-yl)sulfonyl)-6-((((1,1,1-trifluoro-2-methylpropan-2-yl)oxy)carbonyl)amino)-3,4-dihydro-2H-benzo[b][1,4]oxazin-2-yl)-2-methylpropanoic acid] | 13.3 nM |
| CCc1nc(S(=O)(=O)N2C[C@H](C[C@@H](C)C(=O)O)Oc3ccc(NC(=O)OC(C)(C)C(F)(F)F)cc32)c(OCC(F)(F)F)s1 (single isomer, unassigned) [Example 6BR, (R or S)-3-((S)-4-((2-ethyl-5-(2,2,2-trifluoroethoxy)thiazol-4-yl)sulfonyl)-6-((((1,1,1-trifluoro-2-methylpropan-2-yl)oxy)carbonyl)amino)-3,4-dihydro-2H-benzo[b][1,4]oxazin-2-yl)-2-methylpropanoic acid] | 12.3 nM |
| CCOc1sc(CC)nc1S(=O)(=O)N1C[C@H](C[C@@H](C)C(=O)O)Oc2ccc(NC(=O)OC(C)(C)C(F)(F)F)cc21 (single isomer, unassigned) [Example 6Bo, (R or S)-3-((S)-4-((5-ethoxy-2-ethylthiazol-4-yl)sulfonyl)-6-((((1,1,1-trifluoro-2-methylpropan-2-yl)oxy)carbonyl)amino)-3,4-dihydro-2H-benzo[b][1,4]oxazin-2-yl)-2-methylpropanoic acid] | 11.9 nM |
| Cc1cccc(S(=O)(=O)N2C[C@H](C[C@@H](C)C(=O)O)Oc3ccc(NC(=O)OC(C)(C)C(F)(F)F)cc32)c1 (single isomer, unassigned) [Example 6CK, (S or R)-2-methyl-3-((S)-4-(m-tolylsulfonyl)-6-((((1,1,1-trifluoro-2-methylpropan-2-yl)oxy)carbonyl)amino)-3,4-dihydro-2H-benzo[b][1,4]oxazin-2-yl)propanoic acid] | 14.5 nM |
| C[C@H](C[C@H]1CN(S(=O)(=O)c2ccnc(C(F)(F)F)c2)c2cc(NC(=O)OC(C)(C)C(F)(F)F)ccc2O1)C(=O)O (single isomer, unassigned) [Example 6CZ, (R or S)-2-methyl-3-((S)-6-((((1,1,1-trifluoro-2-methylpropan-2-yl)oxy)carbonyl)amino)-4-((2-(trifluoromethyl)pyridin-4-yl)sulfonyl)-3,4-dihydro-2H-benzo[b][1,4]oxazin-2-yl)propanoic acid] | 15.3 nM |
| C[C@@H](C[C@H]1CN(S(=O)(=O)c2cccc(OC(F)F)c2)c2cc(NC(=O)OC(C)(C)C(F)(F)F)ccc2O1)C(=O)O (single isomer, unassigned) [Example 6Co, (S or R)-3-((S)-4-((3-(difluoromethoxy)phenyl)sulfonyl)-6-((((1,1,1-trifluoro-2-methylpropan-2-yl)oxy)carbonyl)amino)-3,4-dihydro-2H-benzo[b][1,4]oxazin-2-yl)-2-methylpropanoic acid] | 8.38 nM |
| C[C@@H](C[C@H]1CN(S(=O)(=O)c2ccnc(C3CC3)c2)c2cc(NC(=O)OC(C)(C)C(F)(F)F)ccc2O1)C(=O)O (single isomer, unassigned) [Example 6DC, (R or S)-3-((S)-4-((2-cyclopropylpyridin-4-yl)sulfonyl)-6-((((1,1,1-trifluoro-2-methylpropan-2-yl)oxy)carbonyl)amino)-3,4-dihydro-2H-benzo[b][1,4]oxazin-2-yl)-2-methylpropanoic acid] | 16.2 nM |
| C[C@@H](C[C@H]1CN(S(=O)(=O)c2cn(C(F)F)nc2Cl)c2cc(NC(=O)OC(C)(C)C(F)(F)F)ccc2O1)C(=O)O (single isomer, unassigned) [Example 6DE, (R or S)-3-((S)-4-((3-chloro-1-(difluoromethyl)-1H-pyrazol-4-yl)sulfonyl)-6-((((1,1,1-trifluoro-2-methylpropan-2-yl)oxy)carbonyl)amino)-3,4-dihydro-2H-benzo[b][1,4]oxazin-2-yl)-2-methylpropanoic acid] | 40.3 nM |
| CC[C@H](C[C@H]1CN(S(=O)(=O)c2cccc(C3CC3)c2)c2cc(NC(=O)OC(C)(C)C(F)(F)F)ccc2O1)C(=O)O (single isomer, unassigned) [Example 10D, (R or S)-2-(((S)-4-((3-cyclopropylphenyl)sulfonyl)-6-((((1,1,1-trifluoro-2-methylpropan-2-yl)oxy)carbonyl)amino)-3,4-dihydro-2H-benzo[b][1,4]oxazin-2-yl)methyl)butanoic acid] | 12.8 nM |

The remaining molecules from weak to strong by IC50, led by results:

| IC50 | Structure (SMILES) |
| --- | --- |
| 26.6 nM | CCOc1sc(C2CC2)nc1S(=O)(=O)N1C[C@H](C[C@@H](C)C(=O)O)Oc2ccc(NC(=O)OC(C)(C)C(F)(F)F)cc21 (single isomer, unassigned) [Example 6BP, (R or S)-3-((S)-4-((2-cyclopropyl-5-ethoxythiazol-4-yl)sulfonyl)-6-((((1,1,1-trifluoro-2-methylpropan-2-yl)oxy)carbonyl)amino)-3,4-dihydro-2H-benzo[b][1,4]oxazin-2-yl)-2-methylpropanoic acid] |
| 23.6 nM | C[C@H](C[C@H]1CN(S(=O)(=O)c2cn(C(F)F)nc2Cl)c2cc(NC(=O)OC(C)(C)C(F)(F)F)ccc2O1)C(=O)O (single isomer, unassigned) [Example 6DD, (R or S)-3-((S)-4-((3-chloro-1-(difluoromethyl)-1H-pyrazol-4-yl)sulfonyl)-6-((((1,1,1-trifluoro-2-methylpropan-2-yl)oxy)carbonyl)amino)-3,4-dihydro-2H-benzo[b][1,4]oxazin-2-yl)-2-methylpropanoic acid] |
| 18.1 nM | CC(C)(OC(=O)Nc1ccc2c(c1)N(S(=O)(=O)c1cccc(C(F)(F)F)c1)C[C@H](CC(O)C(=O)O)O2)C(F)(F)F (mixture of isomers) [Example 15, (R and S)-2-hydroxy-3-((S)-6-((((1,1,1-trifluoro-2-methylpropan-2-yl)oxy)carbonyl)amino)-4-((3-(trifluoromethyl)phenyl)sulfonyl)-3,4-dihydro-2H-benzo[b][1,4]oxazin-2-yl)propanoic acid] |
| 17.8 nM | C[C@@H](C[C@H]1CN(S(=O)(=O)c2cccc(C3CC3)c2)c2cc(NC(=O)OC(C)(C)C(F)(F)F)ccc2O1)C(=O)O (single isomer, unassigned) [Example 6CU, (S or R)-3-((S)-4-((3-cyclopropylphenyl)sulfonyl)-6-((((1,1,1-trifluoro-2-methylpropan-2-yl)oxy)carbonyl)amino)-3,4-dihydro-2H-benzo[b][1,4]oxazin-2-yl)-2-methylpropanoic acid] |
| 14.9 nM | C[C@@H](C[C@H]1CN(S(=O)(=O)c2ccnc(C(F)(F)F)c2)c2cc(NC(=O)OC(C)(C)C(F)(F)F)ccc2O1)C(=O)O (single isomer, unassigned) [Example 6DA, (R or S)-2-methyl-3-((S)-6-((((1,1,1-trifluoro-2-methylpropan-2-yl)oxy)carbonyl)amino)-4-((2-(trifluoromethyl)pyridin-4-yl)sulfonyl)-3,4-dihydro-2H-benzo[b][1,4]oxazin-2-yl)propanoic acid] |
| 11.6 nM | Cc1cccc(S(=O)(=O)N2C[C@H](C[C@H](C)C(=O)O)Oc3ccc(NC(=O)OC(C)(C)C(F)(F)F)cc32)c1 (single isomer, unassigned) [Example 6CP, (S or R)-2-methyl-3-((S)-4-(m-tolylsulfonyl)-6-((((1,1,1-trifluoro-2-methylpropan-2-yl)oxy)carbonyl)amino)-3,4-dihydro-2H-benzo[b][1,4]oxazin-2-yl)propanoic acid] |
| 11.5 nM | C[C@H](C[C@H]1CN(S(=O)(=O)c2ccnc(C3CC3)c2)c2cc(NC(=O)OC(C)(C)C(F)(F)F)ccc2O1)C(=O)O (single isomer, unassigned) [Example 6DB, (R or S)-3-((S)-4-((2-cyclopropylpyridin-4-yl)sulfonyl)-6-((((1,1,1-trifluoro-2-methylpropan-2-yl)oxy)carbonyl)amino)-3,4-dihydro-2H-benzo[b][1,4]oxazin-2-yl)-2-methylpropanoic acid] |
| 10.2 nM | C[C@H](C[C@H]1CN(S(=O)(=O)c2cccc(C3CC3)c2)c2cc(NC(=O)OC(C)(C)C(F)(F)F)ccc2O1)C(=O)O (single isomer, unassigned) [Example 6CW, (R or S)-3-((S)-4-((3-cyclopropylphenyl)sulfonyl)-6-((((1,1,1-trifluoro-2-methylpropan-2-yl)oxy)carbonyl)amino)-3,4-dihydro-2H-benzo[b][1,4]oxazin-2-yl)-2-methylpropanoic acid] |
| 9.39 nM | COc1cc(S(=O)(=O)N2C[C@H](CC(O)C(=O)O)Oc3ccc(NC(=O)OC(C)(C)C(F)(F)F)cc32)ccc1F (mixture of isomers) [Example 18F, (R and S)-3-((S)-4-((4-fluoro-3-methoxyphenyl)sulfonyl)-6-((((1,1,1-trifluoro-2-methylpropan-2-yl)oxy)carbonyl)amino)-3,4-dihydro-2H-benzo[b][1,4]oxazin-2-yl)-2-hydroxypropanoic acid] |
| 5.25 nM | C[C@H](C[C@H]1CN(S(=O)(=O)c2cccc(OC(F)F)c2)c2cc(NC(=O)OC(C)(C)C(F)(F)F)ccc2O1)C(=O)O (single isomer, unassigned) [Example 6CM, (S or R)-3-((S)-4-((3-(difluoromethoxy)phenyl)sulfonyl)-6-((((1,1,1-trifluoro-2-methylpropan-2-yl)oxy)carbonyl)amino)-3,4-dihydro-2H-benzo[b][1,4]oxazin-2-yl)-2-methylpropanoic acid] |
